The values below come from patent US20250257075A1, “MACROCYCLIC INHIBITORS OF KRAS FOR THE TREATMENT OF CANCER” (Hoffmann-La Roche Inc., priority 2022, published 2025).

A word on the IC50: it is the midpoint of a concentration-inhibition curve. A higher IC50 goes with a need for much substance. The term half-life denotes the time in which the quantity being followed falls by half. High values mean slow decline, low ones rapid decline.

The nature of data set [1]: GSH Reaction Rates (inherent GSH reactivity). It counts as in vitro ADME. As to conditions: for T½(hour) in GSH: pH 7.4, up to 6 h. The text has this:
Glutathione (GSH) is a tripeptide found in most of the tissues, especially in high concentrations in the liver, and plays critical roles in protecting cells from oxidative damage and the toxicity of xenobiotic electrophiles, and maintaining redox homeostasis. More specifically, glutathione conjugation helps contribute to detoxification by binding electrophiles that could otherwise bind to proteins or nucleic acids, resulting in cellular damage and genetic mutations.
Many potentially toxic electrophilic xenobiotics and some endogenous compounds are detoxified by conversion to the corresponding glutathione S-conjugate, which consumes inherent GSH and then diminishes detoxification effects. Some drugs and halogenated workplace/environmental contaminants are bioactivated by this mechanism.
Therefore Strategy to minimize the GSH metabolism is very critical. Short T1/2 in inherent GSH reaction indicated high GSH reaction rate. Thus T1/2 in inherent GSH reaction assay was determined for the screening of candidates.
Reference compounds and compounds of this invention potentially could form conjugation with GSH either through halogenated moieties substitution reaction or direct Michael addition reaction. This test was therefore performed to check GSH reactivity of listed compounds.
For inherent GSH reactivity determination, compounds at 1 μM were incubated at 37° C. with and without 5 mM GSH for 0, 0.5, 1, 2, 4 and 6 h in 100 mM potassium phosphate buffer at pH 7.4. At the end of the designated time points, samples were quenched with acetonitrile containing 10 mM N-ethylmaleimide and an internal standard. Quenched samples were centrifuged, and supernatants were analyzed by LC-MS/MS for compound quantification.

In data set [2] the test system is NCI-H358 cells (KRAS G12C). The experiment in a line: Cell viability assay, G12C. Type of data set: cell-based, human. As to conditions: Homo sapiens; NCI-H358, 72 hrs, Cell Counting Kit-8. In short, it runs like this: (§1)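 Seed NCI-H358 5,000/well, AGS and SW620 2,000/well; overnight. Compound, 0.5% DMSO final, 72 hrs. CCK-8 2 hrs, OD450–OD650. IC50: 4-parameter fit.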
For orientation: Formazan colour is commonly taken as a measure of viable cells.

In a further data set the test system is AGS cells (KRAS G12D). Briefly: Cell viability assay, G12D. As to conditions: Homo sapiens, 72 hrs, Cell Counting Kit-8. It counts as cell-based, human. In short, it runs like this: as §1
Data set [3] concerns phosphorylation of ERK, KRAS G12C in NCI-H358 cells. Briefly: pERK inhibition assay, G12C. Type of data set: cell-based, human. As to conditions: Homo sapiens; NCI-H358, 4 hours of incubation. In short, it runs like this:
(§2)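 NCI-H358 (G12C), AGS (G12D) and SW620 (G12V) cells were seeded overnight at 30,000, 20,000 and 30,000 cells/well, respectively. They were then treated 4 h with compound (0.5% DMSO final), fixed, and methanol-permeabilized. pERK was detected by in-cell ELISA (anti-pERK/HRP, TMB, OD450); IC50 from a 4-parameter sigmoidal fit.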

The subject of data set [4] is phosphorylation of ERK, KRAS G12D in AGS cells. The experiment in a line: pERK inhibition assay, G12D. Type of data set: cell-based, human. As to conditions: Homo sapiens, 4 hours of incubation. In short, it runs like this:
as §2

Data set [5] concerns phosphorylation of ERK, KRAS G12V in SW620. Briefly: pERK inhibition assay, G12V. It counts as cell-based, human. As to conditions: Homo sapiens, SW-620; SW620, 4 hours of incubation. In short, it runs like this:
as §2

The mark [6] stands for this setting: 1 μM compound, 5 mM GSH, 37° C., pH 7.4, 6 hr.
[7] abbreviates: 1 μM compound, 5 mM GSH, 37° C.

With `CO[C@@H](C)c1ncc(N2CCN(C)CC2)cc1-c1c2c3cc(c(F)cc3n1CC(F)(F)F)-c1csc(n1)C[C@H](NC(=O)[C@H](C(C)C)N(C)C(=O)[C@H]1C[C@@H](C#CC(F)(F)F)C1)C(=O)N1CCC[C@H](N1)C(=O)OCC(C)(C)C2` (atropisomer, axis not shown; (M)) [Example 3, cis-N-[(1S)-1-[[(7S,13S)-24-fluoro-(20M)-20-[2-[(1S)-1-methoxyethyl]-5-(4-methylpiperazin-1-yl)-3-pyridyl]-17,17-dimethyl-8,14-dioxo-21-(2,2,2-trifluoroethyl)-15-oxa-4-thia-9,21,27,28-tetrazapentacyclo[17.5.2.1^2,5.1^9,13.0^22,26]octacosa-1(25),2,5(28),19,22(26),23-hexaen-7-yl]carbamoyl]-2-methyl-propyl]-N-methyl-3-(3,3,3-trifluoroprop-1-ynyl)cyclobutanecarboxamide], the “Remaining at 6 hr in GSH (%)” value in data set [1] (setting [6]) worked out at 100%. Besides, the “T½(hour) in GSH” value in data set [1] (setting [7]) is “stable (If % depletion after 6 hour incubation is less than 20%, compounds were reported as stable)”. For the same compound, the IC50 was 0.003 µM in data set [2]; 3.57 µM in the data set on AGS cells (KRAS G12D); 0.007 µM in data set [3]; 0.378 µM in data set [4]; 0.009 µM in data set [5].
For `CCn1c(-c2cc(N3CCN(CC(F)(F)F)CC3)cnc2[C@H](C)OC)c2c3cc(c(F)cc31)-c1csc(n1)C[C@H](NC(=O)[C@H](C(C)C)N(C)C(=O)[C@H]1C[C@@H](C#CC(F)(F)F)C1)C(=O)N1CCC[C@H](N1)C(=O)OCC(C)(C)C2` (atropisomer, axis not shown; (M)) [Example 8, cis-N-[(1S)-1-[[(7S,13S)-21-ethyl-24-fluoro-(20M)-20-[2-[(1S)-1-methoxyethyl]-5-[4-(2,2,2-trifluoroethyl)piperazin-1-yl]-3-pyridyl]-17,17-dimethyl-8,14-dioxo-15-oxa-4-thia-9,21,27,28-tetrazapentacyclo[17.5.2.1^2,5.1^9,13.0^22,26]octacosa-1(25),2,5(28),19,22(26),23-hexaen-7-yl]carbamoyl]-2-methyl-propyl]-N-methyl-3-(3,3,3-trifluoroprop-1-ynyl)cyclobutanecarboxamide], the “Remaining at 6 hr in GSH (%)” value in data set [1] (setting [6]) came out at 90%. Further, in data set [1] (setting [7]), the “T½(hour) in GSH” value was “stable (If % depletion after 6 hour incubation is less than 20%, compounds were reported as stable)”. Also, the half-inhibitory concentration (IC50) in data set [2] was 0.019 µM; in the data set with AGS cells (KRAS G12D), greater than 5 µM; in data set [3] it was 0.005 µM; in data set [4], greater than 10 µM; in data set [5], 0.125 µM.
Regarding `CCn1c(-c2cc(N3CCOCC3)cnc2[C@H](C)OC)c2c3cc(c(F)cc31)-c1csc(n1)C[C@H](NC(=O)[C@H](C(C)C)N(C)C(=O)[C@H]1C[C@@H](C#CC(F)(F)F)C1)C(=O)N1CCC[C@H](N1)C(=O)OCC(C)(C)C2` (atropisomer, axis not shown; (M)) [Example 11, cis-N-[(1S)-1-[[(7S,13S)-21-ethyl-24-fluoro-(20M)-20-[2-[(1S)-1-methoxyethyl]-5-morpholino-3-pyridyl]-17,17-dimethyl-8,14-dioxo-15-oxa-4-thia-9,21,27,28-tetrazapentacyclo[17.5.2.1^2,5.1^9,13.0^22,26]octacosa-1(25),2,5(28),19,22(26),23-hexaen-7-yl]carbamoyl]-2-methyl-propyl]-N-methyl-3-(3,3,3-trifluoroprop-1-ynyl)cyclobutanecarboxamide], the “Remaining at 6 hr in GSH (%)” value in data set [1] (6 h, 1 μM, pH 7.4) came out at 94%. Also, the IC50 in data set [2] was 0.002 µM; in the data set with AGS cells (KRAS G12D) it was greater than 10 µM; in data set [3], 0.011 µM; in data set [4] it was 3.77 µM; in data set [5] it was 0.187 µM.
`CC#CC(=O)N1CC[C@H](C(=O)N(C)[C@H](C(=O)N[C@H]2Cc3nc(cs3)-c3ccc4c(c3)c(c(-c3cccnc3[C@H](C)OC)n4CC)CC(C)(C)COC(=O)[C@@H]3CCCN(N3)C2=O)C(C)C)C1` [Example A168, reference compound]: the “Remaining at 6 hr in GSH (%)” value in data set [1] (6 h, 1 μM, pH 7.4) is listed as 77%. The compound further showed a half-life at 1 μM in data set [1] (pH 7.4) of 1730 min. Further, the IC50 was found to be 0.011 µM in data set [2], 2.19 µM in the data set on AGS cells (KRAS G12D), 0.053 µM in data set [3] and 0.176 µM in data set [5].
